Source: patent publication US9518300B2, “Composition and method for treating a hematological malignancy” (Dana-Farber Cancer Institute, Inc., priority 2014, dated 2016)

What was measured:
[1] = μCT of bone in mice not transplanted with myeloma cells; assay type: in vivo; details: SCID mice not transplanted, 10 days of treatment, versus vehicle
Method: Micro-computed topographic (μCT) imaging was performed on the L4-L6 vertebrae of the intact spine of a subset of mice using a high-resolution desktop imaging system (μCT40, Scanco Medical AG, Bruttisellen, Switzerland). Scans were acquired using a 12 μm^3 isotropic voxel size, 70 kVp peak x-ray tube potential, and 200 ms integration time. Cortical and trabecular bone micro architecture was quantified in the 5th lumbar vertebral body in a region beginning 120 μm below the cranial growth plate and ending 120 μm above the caudal growth plate. To assess cortical lesions, we determined the cortical bone volume (Ct.BV) and total volume (Ct.TV) of the ventral face of the vertebral body. Cortical void fraction (%) was calculated as 1−(Ct.BV/Ct.TV)*100 and represents the percent of the ventral face that was void of bone. Trabecular bone volume fraction (Tb.BV/Tb.TV, %) was measured in the region of interest. […]
Micro-computed topographic (μCT) imaging was performed on the L4-L6 vertebrae of the intact spine of a subset of mice using a high-resolution desktop imaging system ([…], Scanco Medical AG, Bruttisellen, Switzerland). […] Cortical and trabecular bone micro architecture was quantified in the 5th lumbar vertebral body in a region beginning 120 μm below the cranial growth plate and ending 120 μm above the caudal growth plate. […]

[2] = tested on: BCL9; assay: Transfection of patient CD138+ primary cells, IF of BCL9, CD44, Axin2; assay type: cell-based, human; details: CD138+ primary cells (n=3), 40 pmol, control cel-miR-67
From the text: (§1) In order to verify miR-30's potential for therapy in MM patients, CD138+ primary cells (n=3) were transfected with 40 pmol of mature miR-30c or same amount of cel-miR-67 as control.

[3] = tested on: CD138+ primary cells; assay: Proliferation of patient CD138+ primary MM cells, [3H] thymidine uptake; assay type: cell-based, human; details: 40 pmol
Method: Cell proliferation was assessed by [^3H] thymidine uptake as described (1). For apoptosis, cells were stained with Annexin-V-Fluos (Boehringer, Mannheim, Germany). Stained cells were analyzed by flow cytometry, and data were analyzed by use of CellQuest (Becton-Dickinson, Sunnyvale, Calif.). Cell invasion and migration assays were done as described (2).
as §1

[4] = tested on: BCL9; assay: BCL9 and Wnt target gene expression after ectopic miR-30 expression (Q-RT-PCR, immunoblot, IF); assay type: cell-based, human; details: H929 cells
From the text: We next investigated whether BCL9 mRNA expression is regulated by miR-30s in MM cells using both gain- and loss-of function studies. For gain-of-function studies we used H929 cells that express the lowest levels of miR-30s among the MM cell lines examined (FIG. 1C).
We first induced ectopic expression of individual V-miR-30s family members in H929 cells using lentiviral infection. After flow sorting of GFP positive cells, levels of miR-30s were verified by Q-RT-PCR (FIG. 3A) and then used in subsequent experiments.

[5] = tested on: BCL9; assay: Transient transfection of mature miR-30c, BCL9 immunoblot in RPMI8226 cells; assay type: cell-based, human; details: increasing amounts of mature miR-30c, 72 hours, control cel-miR-67
Method: To exclude the possibility that the observed changes in BCL9 expression may be due to non specific and/or secondary effects of stable transfection of V-miR-30c, we also performed transient transfection with increasing amounts of mature miR-30c into RPMI8226 cells, using cel-miR-67 as a control (FIG. 3F).
To confirm transfection efficiency, cells were collected 72 hours after transfection, and miR-30c expression levels were checked by Q-RT-PCR (FIG. 3F, top). We found an inverse association between downregulation of BCL9 protein expression and increasing amounts of transfected mature miR-30c (FIG. 3F, bottom).

[6] = tested on: H929 cells; assay: Dexamethasone sensitivity of H929 cells co-cultured with HS-5 BMSCs (CAM-DR); assay type: cell-based, human; details: H929 with HS-5 cells 48 h, 200 nM dexamethasone, control cel-miR-67
From the text: Reasoning that CD44 is a downstream target of Wnt/β-catenin/BCL9 transcriptional complex, and that miR-30c downregulates expression of CD44 in MM cells (FIG. 3B), and that CD44 is a functional component of cell adhesion-mediated drug resistance (CAM-DR), we investigated the possible role of miR-30s in MM drug resistance in the context of a bone marrow (BM) microenvironment. After ectopic overexpression of miR-30c or miR-30a/b/c/d/e cocktail (miR-30mix) or a negative control (cel-miR-67) in H929 cells, we co-cultured these cells alone or in the presence of HS-5 cells for 48 h and treated them with 200 nM dexamethasone.

## miR-30c: microRNA, UGUAAACAUCCUACACUCUCAGC (SEQ ID NO: 3 / 29) (listed as RNA, chemistry not given here; listed as Homo sapiens)
[1]
  bone osteolytic lesions: No apparent development
[2]
  expression of BCL9, CD44 and Axin2: downregulated
[3]
  MM cell proliferation: dramatically inhibited
[4]
  expression of BCL9 mRNA: significant reduction
  expression of Wnt pathway downstream targets CD44 and Axin2: reduced expression
[5]
  BCL9 protein expression: downregulation
[6]
  sensitivity to dexamethasone treatment: resensitize
